# According to patent publication US20100216848A1, “LIQUID PHARMACEUTICAL COMPOSITIONS FOR PARENTERAL ADMINISTRATION OF A SUBSTITUTED AMIDE” (priority 2007, published 2010):
# What was measured:
# [1] = Aqueous solubility of Compound I; type: physicochemical; details: water
# [2] = Solubility of Compound I anhydrous Polymorph B in various liquid vehicles (suspension equilibrated at least 24 hours, filtered, HPLC); type: physicochemical; details: aqueous with cosolvent or surfactant or cyclodextrin, thermodynamic from solid
# Experimental: Solubility determinations were carried out at room temperature unless otherwise specified. Solubility of N-[1S,2S]-3-(4-chlorophenyl)-2-(3-cyanophenyl)-1-methylpropyl]-2-methyl-2-{[5-trifluoromethyl]pyridine-2-yl}oxy}propanamide (Compound I) as anhydrous unsolvated Polymorph B (such as prepared in Preparatory Example 2) was determined by preparing a suspension of anhydrous Polymorph B of Compound I in the solvent system. After equilibration for at least 24 hours, the suspension was filtered and the supernatant was analyzed by HPLC. Chromatography was performed on either a Vydac C18 300 Å 250×4.6 mm 5 μm particle size with in-line Phenomenex Security Guard w/C18 cartridge or on a Polaris C18-Ether columns or on a Polaris C8-Ether columns using 0.1% phosphoric acid in combination with methanol or acetonitrile depending on HPLC conditions. The compound was detected at 220 and 272 nm wavelength and assayed using standard curves. The results are presented below in Table 1, calculated based on mg/g vehicle.
smiles,measurement,setting,value
"C[C@H](NC(=O)C(C)(C)Oc1ccc(C(F)(F)F)cn1)[C@@H](Cc1ccc(Cl)cc1)c1cccc(C#N)c1 [Compound I, N-[1S,2S]-3-[(4-chlorophenyl)-2-(3-cyanophenyl)-1-methylpropyl]-2-methyl-2-{[(5-trifluoromethyl)pyridine-2-yl]oxy}propanamide]",solubility,[1],< 0.4 µg/mL
same,solubility,"[2]; 40% H2O, 35% Captisol, 15% glycerol, 10% EtOH, 40% H20, room temperature",20 µg/mL
same,solubility,"[2]; 50% H2O, 25% PG, 25% PEG300, 50% H20, room temperature",70 µg/mL
same,solubility,"[2]; 90% H2O, 10% glycerol, 90% H20, room temperature",< 1 µg/mL
same,solubility,"[2]; 94.5% H2O, 0.5% Tween80, 5% EtOH, 94.5% H20, room temperature",80 µg/mL
same,solubility,"[2]; 95.5% H2O, 0.5% Tween80, 95.5% H20, room temperature",80 µg/mL
same,solubility,"[2]; 97.5% H2O, 2.5% Tween80, 97.5% H20, room temperature",400 µg/mL
same,solubility,"[2]; 99.75% H2O, 0.25% Tween80, 99.75% H20, room temperature",40 µg/mL
same,solubility,"[2]; 0.5% Tween80, 95.5% Saline, room temperature",80 µg/mL
same,solubility,"[2]; 10% EtOH, 90% H2O, room temperature",< 1 µg/mL
same,solubility,"[2]; 15% glycerol, 10% EtOH, 75% H2O, room temperature",< 1 µg/mL
same,solubility,"[2]; 25% PEG400, 75% H2O, room temperature",4 µg/mL
same,solubility,"[2]; 35% hydroxypropyl beta cyclodextrin, 18% glycerol, 10% EtOH, 37% H20, room temperature",40 µg/mL
